Consider one compound from US5047533A, “Acyclic purine phosphonate nucleotide analogs” (SRI International, priority 1990, dated 1991).

≈ marks a conversion by molar mass, not a printed value. Like-named read-outs stand apart in the source and are kept apart here. Where only a bound is given, the exact number is not on record here.

The subject of one data set is MA-104 cells. Nature of the data set: Cytotoxicity controls (maximum tolerated dose) in MA-104 cells. In kind it is cell-based, monkey. The following applies: Table 3 Test 2. How it is done: (§1) Continuous passaged monkey kidney (MA-104) cells were used for testing of herpes-type virus, with growth medium consisting of Minimum Essential Medium (MEM) supplemented with 0.1% NaHCO3 and […] gentamicin.
(§2) To a 96 well microtiter plate containing an established 24 hour monolayer of cells from which the medium has been decanted was added 0.1 ml of varying (one-half log10) concentrations of test compound, which incubated on the cell 15 minutes, after which 0.1 ml of virus in a concentration of 320 cell culture 50% infectious doses (CCID50)/0.1 ml was added. The plate was covered with plastic wrap and incubated at 37° C. Included with the test were toxicity controls (each concentration of compound+test medium in place of virus), virus controls (virus+test medium in place of compound) and cell controls (test medium in place of compound and virus). The cells were examined microscopically after 72 hours for evidence of cytotoxicity and for viral cytopathic effect (CPE). Vidarabine was run on the same plate in parallel. […] were added to the medium at a concentration of 2000 μg/ml for use as a positive control.
*Maximum tolerated dose, μg/ml.

Data set [1] relates to human cytomegalovirus (strain AD169). Nature of the data set: Plaque reduction, human cytomegalovirus. In kind it is cell-based. As for the experimental part: (§3) One herpes virus strain employed was Strain McCrae of type 1 herpes (thymidine kinase positive virus) (HSV-1TK^+). This strain was prepared and titered in MA-104 cells and frozen at -90° C. until use. Also used were strain HF (HSV-1TK^-). Strain E194 (HSV-2), NJB strain (MCMV), strain AD169 (HCMV).
^a 50% effective dose, determined from plot of data.
The data on acyclovir were gathered from tests run in MRC-5 cells grown under agarose overlay, with plaques read 7 days after virus exposure.

Data set [2] has as its system reverse transcriptase (RT) from Moloney murine leukemia virus (MMLV) or avian myeloblastosis virus (AMV). Kind of data set: Reverse transcriptase assay. The format is biochemical. The following applies: 1 mM. How it is done: For the reverse transcriptase assay, cloned reverse transcriptase (RT) (Bethesda Research Laboratories) from Moloney murine leukemia virus (MMLV) or avian myeloblastosis virus (AMV) (Seikagaku or Boehringer Mannheim) was used to direct DNA synthesis from a polyribonucleotide template and a oligodeoxynucleotide primer under reaction conditions (Houts, G. E., et al, J Virol (1979) 29:517.)
Reaction mixtures (100 μl) for the assay of MMLV RT consisted of 50 mM Tris-hydrochloride, pH 8.0, 6 mM MgCl2, 40 mM KCl, 100 μg bovine serum albumin per ml, 1 mM dithiothreitol, 0.1 mM polyadenylic acid (Pharmacia, Inc.), 0.1 mM oligo(dT)12-18 (Pharmacia, Inc.), 0.4 mM deoxythymidine triphosphate (dTTP), and 0.1 mM tritiated (93.5 Cl/mmol) dTTP (New England Nuclear). The compounds assayed were added in various concentrations and dilutions at a volume of 10 μl. Results were confirmed by duplicate assays. Dilutions were made using 10% aqueous DMSO. The total activity was measured by spotting on dry Whatman 3 mm filter disks and radioactivity was determined by liquid scintillation techniques. The assay time course was begun by adding 10 units of RT from MMLV or AMV and incubating the reaction at 37° C. […] Disks were dried under a heat lamp and the acid-insoluble product radioactivity was determined by liquid scintillation counting. […]

Data set [3] relates to HSV-1TK+ (Strain McCrae of type 1 herpes). Kind of data set: Inhibition of viral CPE, HSV-1TK+ in MA-104 cells. The format is cell-based. As for the experimental part:
as §3, §1, §2
Antiviral activity was determined by observation of inhibition of viral CPE. This activity was expressed by ED50, defined as that dose range of compound causing 50% CPE inhibition.
A Virus Rating (VR) was also determined. VR is a numerical expression of antiviral activity, weighted to take into account any cytotoxicity observed, as discussed by Sidewell et al, Appl Microbiol (1971) 22:797. Generally, a VR of 0.1-0.4 indicates slight antiviral effect, 0.5-0.9 indicates moderate antiviral effect, and ≥1.0 indicates strong antiviral effect.

The test system of another data set is HIV. Nature of the data set: Antiviral activity versus HIV in lymphoblastoid cells. As to conditions: Human immunodeficiency virus 1, Lymphoblastoid cell, read-out: ED50 against HIV. The format is cell-based. How it is done:
The compounds of the invention were evaluated in vitro as antiviral agents against herpes virus and against RNA retrovirus. Various herpes strains were used. An infected B lymphoblastoid cell line was used as HIV substrate to test antiviral activity with respect to RNA retrovirus.
To test antiviral activity versus HIV, the following procedure was used: Infectious HIV was assayed in cell culture as described originally by Barre-Sinoussi et al for isolation of LAV, except that persistently infected lymphoblastoid cells were used instead of mononuclear cells from anti-LAV negative donors. HIV obtained from cell culture was stored in liquid nitrogen in aliquots of RPMI 1640 culture medium with 20% of total calf serum and 20% glycerol and containing 1,000 TCID-50 HIV. The lymphoblastoid cells (10^6) were incubated with 1,000 TCID-50 of HIV obtained from cell cultures, and cells were then cultured in RPMI-1640 medium. Culture medium was changed every 3 days for 3 weeks and the medium for each 3-day period from Day 6 through Day 21 was assayed for viral reverse transcriptase activity by concentrating (pelleting) virus by ultracentrifugation in the 100 place Spinco 25 rotor and assaying pellets for reverse transcriptase (RT) using a ^32 P-dTTP in the presence of dimer-template poly rA-oligo dT. […]

Consider `CCOP(=O)(O)CCCOCn1cnc2c(=O)[nH]c(N)nc21` [Compound 2, 9(3'-ethylphosphono-1'-propyloxymethyl)guanine], for which the “MTD (Maximum tolerated dose)” value in the data set on MA-104 cells was more than 1000 µg/mL. The “No. Plaques” value in data set [1] (Experiment No. 1, 32 μg/ml) is 5; in data set [1] (Experiment No. 1, 100 μg/ml) it was 0; in data set [1] (Experiment No. 2, 10 μg/ml), 17; in data set [1] (Experiment No. 2, 32 μg/ml) it was 6; in data set [1] (Experiment No. 2, 100 μg/ml), 1. Moreover, the inhibition at 32 µg/mL in data set [1] (Human betaherpesvirus 5, AD169, read-out: % Reduct., Experiment No. 1, 32 μg/ml) was determined as 71%; in data set [1] (Human betaherpesvirus 5, AD169, read-out: % Reduct., Experiment No. 2, 32 μg/ml), 73%. For the same compound, the inhibition at 100 µg/mL in data set [1] (Human betaherpesvirus 5, AD169, read-out: % Reduct., Experiment No. 1, 100 μg/ml) was 100%; in data set [1] (Human betaherpesvirus 5, AD169, read-out: % Reduct., Experiment No. 2, 100 μg/ml), 96%. The inhibition at 10 µg/mL in data set [1] (Human betaherpesvirus 5, AD169, read-out: % Reduct., Experiment No. 2, 10 μg/ml) is 23%. In addition, the EC50 in data set [1] (Human betaherpesvirus 5, AD169, read-out: Approx. ED50, Experiment No. 2, determined from plot of data) was 10 to 32 µg/mL (≈ 30.2 to 96.6 µM); in data set [1] (Human betaherpesvirus 5, AD169, read-out: ED50, human CMV), 10 µg/mL (≈ 30.2 µM); in data set [3] (MA104, 72 h, read-out: ED50), less than 1 µg/mL; with HIV, 30 µg/mL (≈ 90.6 µM). The “human CMV-inhibitory effect relative to acyclovir” value in data set [1] (overall, Table 5) was “approximately the same”. Also, in data set [2], the “inhibition of reverse transcriptase” value was 100%. For the same compound, the “activity against HSV-1TK+ relative to vidarabine” value in data set [3] is “comparable to that of vidarabine”. The inhibition at 1000 µg/mL in data set [3] (MA104, read-out: CPE Inhib., Table 3 Test 1, 1000 μg/ml) was determined as 100%. Also, the “VR (Virus Rating)” value in data set [3] (Table 3 Test 1, HSV-1TK+) is listed as more than 2.0; in data set [3] (Table 3 Test 2, HSV-1TK+), more than 1.4. This compound yielded an ED50 in data set [3] (Table 3 Test 2, HSV-1TK+) of less than 1.0 µg/mL.
